Data reported in patent US20240246931A1, “COMPOUNDS AS PD1/PD-L1 INHIBITORS AND METHODS THEREOF” (JUBILANT PRODEL LLC, priority 2021, published 2024).

Biological target: T1, PD-1/PD-L1 interaction (Homo sapiens, UniProt Q9NZQ7)
T1 construct: purchased CisBio 63ADK000CPAPEG
Assay: PD-1/PD-L1 HTRF binding assay (CisBio kit)
Conditions: HTRF PD1/PD-L1 inhibition assay
Method: PD-L1 Enzyme Assay: Homogenous Time-Resolved Fluorescence (HTRF) Binding Assay
All binding studies were performed using PD-1/PD-L1 Binding Assay Kit from CisBio (Catalog #63ADK000CPAPEG), according to the manufacturer's protocol. The interaction between Tag1-PD-1 and […] was detected by anti-Tag1-Eu^3+ (HTRF donor) and anti-Tag2-XL665 (HTRF acceptor). When the donor and acceptor antibodies were brought to close proximity due to PD-1 and PD-L1 binding, excitation of the donor antibody triggered fluorescent resonance energy transfer (FRET) towards the acceptor antibody, which in turn emitted specifically at 665 nm. This specific signal is positively proportional to PD-1/PD-L1 interaction. The compounds blocking PD-1/PD-L1 interaction will cause a reduction in HTRF signal. The necessary reagents were mixed in the following order: 2 μL compounds (or diluents buffer), 4 μL PD-L1 protein, 4 μL PD-1 protein. After an incubation of 15 minutes, 5 μL of anti-Tag1-Eu^3+ and 5 μL of anti-Tag2-XL665 were added. The plate was sealed and incubated at room temperature for 1 h. The fluorescence emission was read at two different wavelengths (665 nm and 620 nm) on a BMG PheraStar® multi-plate reader.
Results were calculated from the 665 nm and 620 nm fluorescence signal and expressed in HTRF ratio=(665 nm/620 nm)×10^4.
Compounds having IC50<100 nM are designated as “A”; 100-500 nM are designated as “B”; and >500 nM are designated as “C” respectively.

T1 sequence (Q9NZQ7 19-238 limits assumed): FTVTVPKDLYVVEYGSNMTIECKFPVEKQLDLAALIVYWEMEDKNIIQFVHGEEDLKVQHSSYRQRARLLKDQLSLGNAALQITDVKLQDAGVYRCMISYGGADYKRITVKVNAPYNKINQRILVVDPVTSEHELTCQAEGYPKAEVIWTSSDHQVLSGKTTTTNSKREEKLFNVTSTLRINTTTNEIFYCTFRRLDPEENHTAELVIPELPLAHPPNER

SMILES | IC50 [nM]
CC(=O)NCC1CCCN1Cc1c(OCc2cncc(C#N)c2)cc(OCc2cccc(-c3ccccc3)c2C)c2c1CCC2 (stereo not drawn) [Example 52, N-((1-((5-((5-cyanopyridin-3-yl)methoxy)-7-((2-methyl-[1,1′-biphenyl]-3-yl)methoxy)-2,3-dihydro-1H-inden-4-yl)methyl)pyrrolidin-2-yl)methyl)acetamide] | < 100
Cc1c(COc2cc(OCc3cncc(C#N)c3)c(CN3CC[C@H](CO)C3)c3c2CCC3)cccc1-c1ccccc1 [Example 18, (S)-5-(((4-((3-(hydroxymethyl)pyrrolidin-1-yl)methyl)-7-((2-methyl-[1,1′-biphenyl]-3-yl)methoxy)-2,3-dihydro-1H-inden-5-yl)oxy)methyl)nicotinonitrile] | < 100
Cc1c(COc2cc(OCc3cncc(C#N)c3)c(CN3CCC3CO)c3c2CCC3)cccc1-c1cccc2cccnc12 (stereo not drawn) [Example 69, 5-(((4-((2-(hydroxymethyl)azetidin-1-yl)methyl)-7-((2-methyl-3-(quinolin-8-yl)benzyl)oxy)-2,3-dihydro-1H-inden-5-yl)oxy)methyl)nicotinonitrile] | > 500
Cc1c(COc2cc(OCc3cc(C#N)c[n+]([O-])c3)c(CN3CCCC[C@H]3CO)c3c2CCC3)cccc1-c1ccccc1 [Example 45, (S)-3-cyano-5-(((4-((2-(hydroxymethyl)piperidin-1-yl)methyl)-7-((2-methyl-[1,1′-biphenyl]-3-yl)methoxy)-2,3-dihydro-1H-inden-5-yl)oxy)methyl)pyridine 1-oxide] | < 100
Cc1ccc(-c2cccc(COc3cc(OCc4cncc(C#N)c4)c(CN4CCC4CO)c4c3CCC4)c2C)cc1 (stereo not drawn) [Example 73, 5-(((7-((2,4′-dimethyl-[1,1′-biphenyl]-3-yl)methoxy)-4-((2-(hydroxymethyl)azetidin-1-yl)methyl)-2,3-dihydro-1H-inden-5-yl)oxy)methyl)nicotinonitrile] | 100 to 500
Cc1c(COc2cc(OCc3cncc(C#N)c3)c(C(=O)N3CC[C@H](CO)C3)c3c2CCC3)cccc1-c1ccccc1 [Example 51, (S)-5-(((4-(3-(hydroxymethyl)pyrrolidine-1-carbonyl)-7-((2-methyl-[1,1′-biphenyl]-3-yl)methoxy)-2,3-dihydro-1H-inden-5-yl)oxy)methyl)nicotinonitrile] | 100 to 500
Cc1c(COc2cc(OCc3cncc(C#N)c3)c(CN3CCC3CO)c3c2CCC3)cccc1-c1ccccc1F (stereo not drawn) [Example 62, 5-(((7-((2′-fluoro-2-methyl-[1,1′-biphenyl]-3-yl)methoxy)-4-((2-(hydroxymethyl)azetidin-1-yl)methyl)-2,3-dihydro-1H-inden-5-yl)oxy)methyl)nicotinonitrile] | < 100
Cc1c(COc2cc(OCc3cnn(C)c3)c(CN3CCCC[C@H]3CO)c3c2CCC3)cccc1-c1ccccc1 [Example 39, (S)-(1-((5-((1-methyl-1H-pyrazol-4-yl)methoxy)-7-((2-methyl-[1,1′-biphenyl]-3-yl)methoxy)-2,3-dihydro-1H-inden-4-yl)methyl)piperidin-2-yl)methanol] | 100 to 500
Cc1c(COc2cc(OCc3cncc(C#N)c3)c(CN3CC(F)(F)CCC3CO)c3c2CCC3)cccc1-c1ccccc1 (stereo not drawn) [Example 12, 5-(((4-((5,5-difluoro-2-(hydroxymethyl)piperidin-1-yl)methyl)-7-((2-methyl-[1,1′-biphenyl]-3-yl)methoxy)-2,3-dihydro-1H-inden-5-yl)oxy)methyl)nicotinonitrile] | 100 to 500
COc1cccc(-c2cccc(COc3cc(OCc4cncc(C#N)c4)c(CN4CCC4CO)c4c3CCC4)c2C)c1 (stereo not drawn) [Example 65, 5-(((4-((2-(hydroxymethyl)azetidin-1-yl)methyl)-7-((3′-methoxy-2-methyl-[1,1′-biphenyl]-3-yl)methoxy)-2,3-dihydro-1H-inden-5-yl)oxy)methyl)nicotinonitrile] | < 100
Cc1c(COc2cc(OCc3cncc(C#N)c3)c(CN3CCC3CO)c3c2CCC3)cccc1-c1cccc(O)c1 (stereo not drawn) [Example 67, 5-(((7-((3′-hydroxy-2-methyl-[1,1′-biphenyl]-3-yl)methoxy)-4-((2-(hydroxymethyl)azetidin-1-yl)methyl)-2,3-dihydro-1H-inden-5-yl)oxy)methyl)nicotinonitrile] | < 100
N#Cc1cccc(COc2cc(OCc3cccc(-c4ccccc4)c3C#N)c3c(c2CN2CCCC4CC42CO)CCC3)c1 (stereo not drawn) [Example 36, 3-(((6-((3-cyanobenzyl)oxy)-7-((1-(hydroxymethyl)-2-azabicyclo[4.1.0]heptan-2-yl)methyl)-2,3-dihydro-1H-inden-4-yl)oxy)methyl)-[1,1′-biphenyl]-2-carbonitrile] | 100 to 500
Cc1c(COc2cc(OCc3cscn3)c(CN3CCC3CO)c3c2CCC3)cccc1-c1ccccc1 (stereo not drawn) [Example 40, (1-((7-((2-methyl-[1,1′-biphenyl]-3-yl)methoxy)-5-(thiazol-4-ylmethoxy)-2,3-dihydro-1H-inden-4-yl)methyl)azetidin-2-yl)methanol] | 100 to 500
Cc1c(COc2cc(OCc3cncc(C#N)c3)c(CN3CCC[C@H]3CO)c3c2CCC3)cccc1-c1ccc(F)cc1 [Example 48, (S)-5-(((7-((4′-fluoro-2-methyl-[1,1′-biphenyl]-3-yl)methoxy)-4-((2-(hydroxymethyl)pyrrolidin-1-yl)methyl)-2,3-dihydro-1H-inden-5-yl)oxy)methyl)nicotinonitrile] | 100 to 500
Cc1c(COc2cc(OCc3cncc(C#N)c3)c(CN3CCC[C@@H]3CO)c3c2CCC3)cccc1-c1ccccc1 [Example 19, (R)-5-(((4-((2-(hydroxymethyl)pyrrolidin-1-yl)methyl)-7-((2-methyl-[1,1′-biphenyl]-3-yl)methoxy)-2,3-dihydro-1H-inden-5-yl)oxy)methyl)nicotinonitrile] | < 100
Cc1c(COc2cc(OCc3cncc(C#N)c3)c(CN3CCCC[C@H]3CO)c3c2CCC3)cccc1-c1ccc(F)cc1 [Example 46, (S)-5-(((7-((4′-fluoro-2-methyl-[1,1′-biphenyl]-3-yl)methoxy)-4-((2-(hydroxymethyl)piperidin-1-yl)methyl)-2,3-dihydro-1H-inden-5-yl)oxy)methyl)nicotinonitrile] | 100 to 500
Cc1c(COc2cc(OCc3cncc(C#N)c3)c(CN3CCC3CO)c3c2CCC3)cccc1-c1cncnc1 (stereo not drawn) [Example 59, 5-(((4-((2-(hydroxymethyl)azetidin-1-yl)methyl)-7-((2-methyl-3-(pyrimidin-5-yl)benzyl)oxy)-2,3-dihydro-1H-inden-5-yl)oxy)methyl)nicotinonitrile] | > 500
COc1ccc(-c2cccc(COc3cc(OCc4cncc(C#N)c4)c(CN4CCC4CO)c4c3CCC4)c2C)c(C)c1 (stereo not drawn) [Example 58, 5-(((4-((2-(hydroxymethyl)azetidin-1-yl)methyl)-7-((4′-methoxy-2,2′-dimethyl-[1,1′-biphenyl]-3-yl)methoxy)-2,3-dihydro-1H-inden-5-yl)oxy)methyl)nicotinonitrile] | > 500
Cc1ccc(F)c(-c2cccc(COc3cc(OCc4cncc(C#N)c4)c(CN4CCC4CO)c4c3CCC4)c2C)c1 (stereo not drawn) [Example 56, 5-(((7-((2′-fluoro-2,5′-dimethyl-[1,1′-biphenyl]-3-yl)methoxy)-4-((2-(hydroxymethyl)azetidin-1-yl)methyl)-2,3-dihydro-1H-inden-5-yl)oxy)methyl)nicotinonitrile] | 100 to 500
Cc1c(COc2cc(OCCCCF)c(CN3CC[C@H]3CO)c3c2CCC3)cccc1-c1ccccc1 [Example 33, (S)-(1-((5-(4-fluorobutoxy)-7-((2-methyl-[1,1′-biphenyl]-3-yl)methoxy)-2,3-dihydro-1H-inden-4-yl)methyl)azetidin-2-yl)methanol] | 100 to 500
Cc1c(COc2cc(OCc3cncc(C#N)c3)c(CN3CCC(CO)CC3)c3c2CCC3)cccc1-c1ccccc1 [Example 17, 5-(((4-((4-(hydroxymethyl)piperidin-1-yl)methyl)-7-((2-methyl-[1,1′-biphenyl]-3-yl)methoxy)-2,3-dihydro-1H-inden-5-yl)oxy)methyl)nicotinonitrile] | < 100
Cc1c(COc2cc(OCc3cncc(C#N)c3)c(CN3CCC3CO)c3c2CCC3)cccc1-c1ccccc1C(F)(F)F (stereo not drawn) [Example 60, 5-(((4-((2-(hydroxymethyl)azetidin-1-yl)methyl)-7-((2-methyl-2′-(trifluoromethyl)-[1,1′-biphenyl]-3-yl)methoxy)-2,3-dihydro-1H-inden-5-yl)oxy)methyl)nicotinonitrile] | 100 to 500
Cc1c(COc2cc(OCc3cncc(C#N)c3)c(CN3CCN(C)CC3CO)c3c2CCC3)cccc1-c1ccccc1 (stereo not drawn) [Example 13, 5-(((4-((2-(hydroxymethyl)-4-methylpiperazin-1-yl)methyl)-7-((2-methyl-[1,1′-biphenyl]-3-yl)methoxy)-2,3-dihydro-1H-inden-5-yl)oxy)methyl)nicotinonitrile] | < 100
Cc1c(COc2cc(OCc3cncc(C#N)c3)c(CN3CCC3CO)c3c2CCC3)cccc1-c1cnn(C)c1 (stereo not drawn) [Example 68, 5-(((4-((2-(hydroxymethyl)azetidin-1-yl)methyl)-7-((2-methyl-3-(1-methyl-1H-pyrazol-4-yl)benzyl)oxy)-2,3-dihydro-1H-inden-5-yl)oxy)methyl)nicotinonitrile] | > 500
